Drawing on patent US8937077B2, “Bicyclic diamines as janus kinase inhibitors” (Merck Sharp & Dohme Corp., priority 2010, dated 2015), this text covers IC50 for 32 molecules.

The target of the experiment is T1, Jak1 (Homo sapiens, UniProt P23458).
T1 construct: using a recombinant purified GST-tagged catalytic domain for each enzyme; GST; purchased Invitrogen M4290
T1 sequence (P23458 875-1153 limits assumed): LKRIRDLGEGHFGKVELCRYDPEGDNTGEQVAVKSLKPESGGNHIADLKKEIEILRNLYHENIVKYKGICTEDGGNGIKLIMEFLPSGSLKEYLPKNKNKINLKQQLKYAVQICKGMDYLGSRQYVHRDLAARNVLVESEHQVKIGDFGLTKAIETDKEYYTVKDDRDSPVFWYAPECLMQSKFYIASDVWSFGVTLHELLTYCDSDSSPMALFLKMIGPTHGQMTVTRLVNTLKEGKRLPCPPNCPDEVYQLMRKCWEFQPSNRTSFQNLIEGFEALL
Put plainly: Jak Biochemical HTRF Assay (Jak1). Conditions: IC50 class, recombinant GST-tagged catalytic domain, read-out: Jak1 activity. From the text:
Compounds of formula I can be prepared according to the general procedures described in the Schemes and Examples herein, using appropriate materials. Representative compounds of the present invention are exemplified herein below. The compounds exemplified are not, however, to be construed as limiting the scope of the invention in any manner. The examples further illustrate details for the preparation of the compounds of the present invention. Those skilled in the art will readily understand that known variations of protecting groups, of reagents, as well as of the conditions and processes of the following preparative procedures, can be used to prepare these compounds. It is also understood that whenever a chemical reagent is not commercially available, such a chemical reagent can be readily prepared by those skilled in the art by either following or adapting known methods described in the literature or described herein. Chiral analogs were prepared via incorporation of chiral reagents or obtained after chiral chromatography separation of a racemically generated analog. All temperatures are degrees Celsius unless otherwise noted. Mass spectra (MS) were measured either by electrospray ion-mass spectroscopy (ESMS) or by atmospheric pressure chemical ionization mass spectroscopy (APCI). Jak1 data were obtained using the in vitro assay described below.
Jak Biochemical HTRF Assay Protocol
The ability of compounds to inhibit the activity of Jak1, Jak2, Jak3, and Tyk2 was measured using a recombinant purified GST-tagged catalytic domain for each enzyme (Invitrogen Jak1 #M4290, […]) in an HTRF format biochemical assay. The reactions employed a common peptide substrate, LCB-EQEDEPEGDYFEWLW-NH2 (in-house). The basic assay protocol is as follows: First, […] of diluted compounds in DMSO were dispensed into the wells of a dry 384-well Black plate (Greiner #781076) using a Labcyte Echo 555 acoustic dispenser. Subsequent reagent additions employed an Agilent Bravo. Next, 18 μL, of 1.11X enzyme and 1.11X substrate in 1X assay buffer (Invitrogen kinase buffer #PV3189, 2 mM DTT, 0.05% BSA) were added to the wells and shaken and then preincubated for 30 minutes at room temperature to allow compound binding to equilibrate. After equilibration, 2 μL of 10X ATP in 1X assay buffer was added to initiate the kinase reaction and the plates were shaken and then incubated at room temperature for 120 minutes. At the end of the incubation, 20 μL of 2X stop buffer (streptavidin-Dylight (Thermo #21845), Eu-tagged pY20 antibody (Perkin Elmer #AD0067), EDTA, HEPES, and Triton) was added to quench the reaction. Plates were shaken and centrifuged and then incubated 60 minutes at room temperature and then read on a Perkin Elmer Envision (λex=337 nm, λem=665 and 615 nm, TRF delay time=20 μs). HTRF signal=10,000*665 nm reading/615 nm reading. After normalization to untreated controls, the percent inhibition of the HTRF signal at each compound concentration was calculated. The plot of percent inhibition versus the log of compound concentration was fit with a 4-parameter dose response equation to calculate IC50 values.
(In TR-FRET formats the signal depends on donor and acceptor labels being close together.)
As for `O=C(OC(CCN1CCOCC1)c1ccccc1)N1CCC[C@@H]2C1CCN2c1ncnc2[nH]ccc12` (mixture of isomers) [Example 8-3, (1R and 1S)-3-(morpholin-4-yl)-1-phenylpropyl (3aR,7aR)-1-(7H-pyrrolo[2,3-d]pyrimidin-4-yl)octahydro-4-pyrrolo[3,2-b]pyridine-4-carboxylate], the IC50 lay within 100 to 1000 nM.
Take `CC(Cc1ccccc1)C(=O)N1CCC[C@@H]2[C@H]1CCN2c1ncnc2[nH]ccc12` (mixture of isomers) [Example 29-56, (2S and 2R)-2-methyl-3-phenyl-1-[(3aR,7aR)-1-(7H-pyrrolo[2,3-d]pyrimidin-4-yl)octahydro-4H-pyrrolo[3,2-b]pyridine-4-yl]propan-1-one]: the IC50 fell in the range of 10 to 100 nM.
Turning to `O=C(OCc1ccccc1)N1CCCC2C1CCN2c1ncnc2[nH]ccc12` (racemic) [Example 1, (3aS,7aS and 3aR,7aR) benzyl 1-(7H-pyrrolo[2,3-d]pyrimidin-4-yl)octahydro-4H-pyrrolo[3,2-b]-pyridine-4-carboxylate], the IC50 lay in the range of 10 to 100 nM.
As to `CCCCOC(=O)N1CCCC2C1CCN2c1ncnc2[nH]ccc12` (racemic) [Example 3-3, butyl 1-(7H-pyrrolo[2,3-d]pyrimidin-4-yl)octahydro-4H-pyrrolo[3,2-b]pyridine-4-carboxylate], the IC50 is 10 to 100 nM.
As to `CCCCC(=O)N1CCCC2C1CCN2c1ncnc2[nH]ccc12` (racemic) [Example 29-2, 4-(4-pentanoyloctahydro-1H-pyrrolo[3,2-b]pyridin-1-yl)-7H-pyrrolo[2,3-d]pyrimidine], the IC50 fell in the range of 10 to 100 nM.
As for `O=C(c1ccccc1)N1CCCC2C1CCN2c1ncnc2[nH]ccc12` (racemic) [Example 29-3, 4-[4-(phenylcarbonyl)octahydro-1H-pyrrolo[3,2-b]pyridin-1-yl]-7H-pyrrolo[2,3-d]-pyrimidine], the IC50 fell in the range of 10 to 100 nM.
The result for `CC(C(=O)N1CCC[C@@H]2[C@H]1CCN2c1ncnc2[nH]ccc12)N1CCOCC1` (mixture of isomers) [Example 29-43, 4-[(3aR,7aR)-4-(2-morpholin-4-ylpropanoyl)octahydro-1H-pyrrolo[3,2-b]pyridin-1-yl]7H-pyrrolo[2,3-d]pyrimidine] reads 10 to 100 nM; that for `c1nc(N2CCC3NCCC[C@@H]32)c2cc[nH]c2n1` (single isomer, unassigned) [Enantiomer 1], 100 to 1000 nM; that for `O=C(OCCF)N1CCC[C@@H]2[C@H]1CCN2c1ncnc2[nH]ccc12` (single isomer, unassigned) [Example 3-30], 10 to 100 nM.
The value for `COCCOC(=O)N1CCC[C@@H]2[C@H]1CCN2c1ncnc2[nH]ccc12` (single isomer, unassigned) [Example 3-35] was 10 to 100 nM.
`CN(C)CCOC(=O)N1CCC[C@@H]2[C@H]1CCN2c1ncnc2[nH]ccc12` (single isomer, unassigned) [Example 3-38]: the IC50 fell in the range of 100 to 1000 nM.
The value for `O=C(OCCOCC(F)(F)F)N1CCC[C@@H]2[C@H]1CCN2c1ncnc2[nH]ccc12` (single isomer, unassigned) [Example 3-43] was 10 to 100 nM.
Regarding `CCC(=O)N1CCC[C@@H]2[C@H]1CCN2c1ncnc2[nH]ccc12` (single isomer, unassigned) [Example 29-7], the IC50 is 100 to 1000 nM.
Consider `COCC(=O)N1CCC[C@@H]2[C@H]1CCN2c1ncnc2[nH]ccc12` (single isomer, unassigned) [Example 29-8], for which the IC50 fell in the range of 100 to 1000 nM.
The result for `CCS(=O)(=O)N1CCC[C@@H]2[C@H]1CCN2c1ncnc2[nH]ccc12` (single isomer, unassigned) [Example 32-3] reads 10 to 100 nM; that for `O=S(=O)(N1CCC[C@@H]2[C@H]1CCN2c1ncnc2[nH]ccc12)C(F)(F)F` (single isomer, unassigned) [Example 32-5], 100 to 1000 nM; that for `O=S(=O)(c1ccccc1)N1CCC[C@@H]2[C@H]1CCN2c1ncnc2[nH]ccc12` (single isomer, unassigned) [Example 32-6], 10 to 100 nM.
As to `O=S(=O)(Cc1ccccc1)N1CCC[C@@H]2[C@H]1CCN2c1ncnc2[nH]ccc12` (single isomer, unassigned) [Example 32-7], the IC50 fell in the range of 10 to 100 nM.
In the case of `O=C(OCc1cccnc1)N1CCCC2C1CCN2c1ncnc2[nH]ccc12` [Example 3-1, (3aS,7aS and 3aR,7aR) pyridin-3-ylmethyl 1-(7H-pyrrolo[2,3-d]pyrimidin-4-yl)octahydro-4H-pyrrolo[3,2-b]pyridine-4-carboxylate], the IC50 was 10 to 100 nM.
The value for `O=C(OCc1ccc(F)cc1)N1CCCC2C1CCN2c1ncnc2[nH]ccc12` (centres unmarked) [Example 3-2, 4-fluorobenzyl 1-(7H-pyrrolo[2,3-d]pyrimidin-4-yl)octahydro-4H-pyrrolo[3,2-b]-pyridine-4-carboxylate] was 10 to 100 nM; that for `COc1cccc(COC(=O)N2CCCC3C2CCN3c2ncnc3[nH]ccc23)c1` (centres unmarked) [Example 3-4, 3-methoxybenzyl 1-(7H-pyrrolo[2,3-d]pyrimidin-4-yl)octahydro-4H-pyrrolo[3,2-b]-pyridine-4-carboxylate] was 10 to 100 nM; that for `O=C(OCCCc1cccnc1)N1CCCC2C1CCN2c1ncnc2[nH]ccc12` (centres unmarked) [Example 3-5, 3-pyridin-3-ylpropyl 1-(7H-pyrrolo[2,3-d]pyrimidin-4-yl)octahydro-4H-pyrrolo[3,2-b]-pyridine-4-carboxylate] was 10 to 100 nM.
For `O=C(OCc1ccc(Cl)cc1)N1CCCC2C1CCN2c1ncnc2[nH]ccc12` (centres unmarked) [Example 3-6, 4-chlorobenzyl 1-(7H-pyrrolo[2,3-d]pyrimidin-4-yl)octahydro-4H-pyrrolo[3,2-b]-pyridine-4-carboxylate], the IC50 fell in the range of 10 to 100 nM.
For `O=C(OCCCc1ccccc1)N1CCCC2C1CCN2c1ncnc2[nH]ccc12` (centres unmarked) [Example 3-7, 3-phenylpropyl 1-(7H-pyrrolo[2,3-d]pyrimidin-4-yl)octahydro-4H-pyrrolo[3,2-b]-pyridine-4-carboxylate], the IC50 lay within 10 to 100 nM.
For the molecule `O=C(OCCc1ccccc1)N1CCCC2C1CCN2c1ncnc2[nH]ccc12` (centres unmarked) [Example 3-8, 2-phenylethyl 1-(7H-pyrrolo[2,3-d]pyrimidin-4-yl)octahydro-4H-pyrrolo[3,2-b]pyridine-4-carboxylate], the IC50 was in the range of 10 to 100 nM.
Turning to `O=C(OCc1cccc(F)c1)N1CCCC2C1CCN2c1ncnc2[nH]ccc12` (centres unmarked) [Example 3-9, 3-fluorobenzyl 1-(7H-pyrrolo[2,3-d]pyrimidin-4-yl)octahydro-4H-pyrrolo[3,2-b]-pyridine-4-carboxylate], the IC50 was 10 to 100 nM.
Regarding `O=C(OC1CCOCC1)N1CCCC2C1CCN2c1ncnc2[nH]ccc12` (centres unmarked) [Example 3-10, tetrahydro-2H-pyran-4-yl 1-(7H-pyrrolo[2,3-d]pyrimidin-4-yl)octahydro-4H-pyrrolo[3,2-b]pyridine-4-carboxylate], the IC50 lay in the range of 10 to 100 nM.
As to `O=C(OC1Cc2ccccc2C1)N1CCCC2C1CCN2c1ncnc2[nH]ccc12` (centres unmarked) [Example 3-11, 2,3-dihydro-1H-inden-2-yl 1-(7H-pyrrolo[2,3-d]pyrimidin-4-yl)octahydro-4H-pyrrolo[3,2-b]pyridine-4-carboxylate], the IC50 lay in the range of 10 to 100 nM.
`O=C(OCc1ccccn1)N1CCCC2C1CCN2c1ncnc2[nH]ccc12` (centres unmarked) [Example 3-12, pyridin-2-ylmethyl 1-(7H-pyrrolo[2,3-d]pyrimidin-4-yl)octahydro-4H-pyrrolo[3,2-b]-pyridine-4-carboxylate]: the IC50 is 10 to 100 nM.
As to `O=C(OCc1ccncc1)N1CCCC2C1CCN2c1ncnc2[nH]ccc12` (centres unmarked) [Example 3-13, pyridin-4-ylmethyl 1-(7H-pyrrolo[2,3-d]pyrimidin-4-yl)octahydro-4H-pyrrolo[3,2-b]-pyridine-4-carboxylate], the IC50 fell in the range of 10 to 100 nM.
Consider `COc1ccc(COC(=O)N2CCCC3C2CCN3c2ncnc3[nH]ccc23)cc1` (centres unmarked) [Example 3-14, 4-methoxybenzyl 1-(7H-pyrrolo[2,3-d]pyrimidin-4-yl)octahydro-4H-pyrrolo[3,2-b]-pyridine-4-carboxylate], for which the IC50 lay within 1 to 10 nM.
Consider `O=C(OCc1ccc2ccccc2c1)N1CCCC2C1CCN2c1ncnc2[nH]ccc12` (centres unmarked) [Example 3-15, naphthalen-2-ylmethyl 1-(7H-pyrrolo[2,3-d]pyrimidin-4-yl)octahydro-4H-pyrrolo[3,2-b]pyridine-4-carboxylate], for which the IC50 lay in the range of 10 to 100 nM.
